According to patent US8586103B2, “Non-polymeric compositions for controlled drug delivery” (Foresee Pharmaceuticals, LLC, priority 2008, dated 2013):
Structures can show the parent of a compound that is named as a salt. Each block holds one compound with its values, some of them ahead of it.

Key:
Assay type in all cases: physicochemical
[1] = Phase behaviour of lysozyme SAIB/NMP pellets in PBS buffer; conditions: about 6% with 90% SAIB in NMP, shaker at 37° C.
Procedure: Formulations containing about 6% LYZ and LYZ-DSS (85.2% LYZ) with 90% SAIB in NMP were prepared. Injections of roughly 100 mg were made into vials with 3 mL PBS buffer and 0.1% NaN3. Gel-like pellets were formed at room temperature and put on a shaker at 37° C. […] An improved depot system was achieved the complexation of lysozyme with amphiphilic molecule DSS.

[2] = In vitro release of doxorubicin from SAIB/NMP formulations; conditions: for Release (%) of DOX: 24 h, PBS 7.4, 37° C., 6% DOX loading
Procedure: Formulations were prepared using doxorubicin-HCl (DOX-HCl) and doxorubicin docusate (DOX-DSS) complex powders. Formulations were prepared by mixing DOX-HCL and DOX-DSS with SAIB solution in NMP to achieve 6% DOX loading as shown in Table 6.
(§1) An aliquot of the suspension was used for studying the in vitro release of DOX from different formulations. About 0.1 mL of each DOX formulation was injected into 3 mL of releasing buffer (PBS 7.4, containing 0.1% sodium azide) in a 4 mL glass vial. The vials were incubated at 37° C. and sampled at various time points. At each time point, 2 mL of release medium was removed and replaced with 2 mL of fresh release medium. The collected samples were analyzed for peptide concentration and integrity by HPLC using an YMC-Pack ODS-120A column. Triplicate samples were used for each formulation.

[3] = Integrity of GEN-DSS SAIB/NMP pellets in PBS buffer; conditions: about 6% and 2% GEN-DSS with 90% SAIB in NMP, incubated at 37° C.
Procedure: Formulations containing about 6% and 2% GEN-DSS with 90% SAIB in NMP were prepared. Injections of roughly 100 mg were made into vials with 3 mL PBS buffer and 0.1% NaN3. Gel-like pellets were formed at room temperature.

[4] = In vitro release of leuprolide from SAIB/NMP formulations; conditions: after two weeks; PBS 7.4, 37° C.; SAIB/NMP formulation, about 6% leuprolide
Procedure: (§2) In another embodiment, the release rate of the compositions of the present invention was determined in vitro. About 0.1 mL of each formulation was injected into 3 mL of releasing buffer (PBS 7.4, containing 0.1% sodium azide) in a 4 mL glass vial. The vials were incubated at 37° C. and sampled at various time points. At each time point, 2 mL of release medium was removed and replaced with 2 mL of fresh release medium. The collected samples were analyzed for bioactive substance concentration and integrity by HPLC using an YMC-Pack ODS-120A column or equivalent. Triplicate samples were used for each formulation.
Formulations were prepared by mixing leuprolide acetate (LA-Ac), leuprolide dodecyl sulfate (LA-SDS), leuprolide docusate (LA-DSS) and leuprolide oleate (LA-OL) complex powders with SAIB solution in NMP (90% w/w).
as §1, with “for” for “for studying”, “release.” for “release of DOX from different formulations.”, “leuprolide” for “DOX”

[5] = In vitro release of pramipexole from SAIB formulations; conditions: PBS buffer, 37° C., about 6% PPL in 90% SAIB in NMP
Procedure: Formulations containing about 6% PPL of different salt forms were prepared by mixing PPL with 90% SAIB solutions in NMP. Injections of roughly 100 mg were made into vials with 3 mL PBS buffer and 0.1% NaN3. Gel-like pellets formed and the vials were placed on a shaker at 37° C. The release of PPL was measured by removing 2 mL of the release media at specified times and replacing it with 2 mL of fresh buffer. The concentration in the release media was determined by reverse phase HPLC.

[6] = Stability of the octreotide in formulations at room temperature over time (HPLC); conditions: SAIB/NMP formulation
Description: Those peaks were not observed from the formulation at the beginning, indicating the generation of impurities or degradation products of the octreotide. The intensity of these peaks increased with the increase of time, while the peak for octreotide decreases over time. […] Therefore, this type of formulation must be modified to be suitable for controlled release delivery of various bioactive substances.
(§3) Octreotide acetate (OCT-Ac), octreotide dodecyl sulfate (OCT-SDS) and octreotide docusate (OCT-DSS) complex powders were dissolved in NMP. Then the solutions containing various salt forms of octreotide were thoroughly mixed with SAIB solution in NMP (90% w/w).
After two hours, about 4% of the octreotide was degraded or reacted.

[7] = In vitro release of octreotide from SAIB/NMP formulations; conditions: PBS 7.4, 37° C., SAIB/NMP formulation, about 6% octreotide
Procedure: as §2
An aliquot of the suspension was used for the in vitro release. About 0.1 mL of each formulation containing octreotide was injected into 3 mL of releasing buffer (PBS 7.4, containing 0.1% sodium azide) in a 4 mL glass vial. The vials were incubated at 37° C. and sampled at various time points. At each time point, 2 mL of release medium was removed and replaced with 2 mL of fresh release medium. The collected samples were analyzed for peptide concentration and integrity by HPLC using an YMC-Pack ODS-120A column. Triplicate samples were used for each formulation.

[8] = Appearance and phase separation of octreotide formulations in SAIB/NMP; conditions: for appearance when combined with SAIB/NMP solution: octreotide about 6%
Procedure: A solution of sucrose acetate isobutyrate (SAIB) in N-methyl-2-pyrrolidone (NMP) at a concentration of 80% by weight was prepared by combining 2 g NMP with 8 g SAIB followed by gentle mixing. A clear, low viscosity solution was obtained. Then 60 mg octreotide acetate was dissolved in 100 μL NMP which was combined with 900 μL SAIB solution in NMP (80%) and mixed well to obtain a formulation containing about 6% of octreotide acetate.
Since both SAIB and octreotide acetate were quite soluble in NMP, a clear solution was expected after two solutions in the same solvent (NMP) were mixed. […] Therefore, such a formulation is not suitable for preparation of a stable, single-phase formulation of octreotide in SAIB/NMP solution.
as §3
Chunky solid precipitates were observed and an inhomogeneous formulation was obtained as observed in Example 1. This inhomogeneous formulation will block needles and is not suitable for injection. […] This formulation can be prepared immediately prior to administration or suitable for storage for a period of time by adjusting the formulation parameters. […] This formulation may be packaged and stored for a long period of time at room temperature.
Octreotide acetate (OCT-Ac) and octreotide dodecyl sulfate (OCT-SDS) complex powders were dissolved in NMP. Then the solutions containing various salt forms of octreotide were thoroughly mixed with SAIB solution in NMP (90% w/w).
A chunky aggregate was formed at the bottom of the formulation (FIG. 1(a)). This inhomogeneous formulation is clearly not suitable for injection to form a consistent depot system in situ for controlled release.

Compound: Lysozyme Docusate [LYZ-DSS]
phase behaviour of pellets [1]: remained one phase

Compound: COc1cccc2c1C(=O)c1c(O)c3c(c(O)c1C2=O)C[C@@](O)(C(=O)CO)C[C@@H]3O[C@H]1C[C@H](N)[C@H](O)[C@H](C)O1 [DOX-HCl, doxorubicin hydrochloride]
Release (%) of DOX [2]: More than 70%

Compound: Gentamycin Docusate [GEN-DSS]
behaviour of gel-like pellets [3]: began to disintegrate and fall apart within a few hours

Compound: CCCCC(CC)COC(=O)CC(C(=O)OCC(CC)CCCC)S(=O)(=O)O.COc1cccc2c1C(=O)c1c(O)c3c(c(O)c1C2=O)CC(O)(C(=O)CO)CC3OC1CC(N)C(O)C(C)O1 (centres unmarked) [DOX-DSS, doxorubicin docusate]
Release (%) of DOX [2]: Less than 8% | reduction of the initial burst release of DOX by complexation with DSS ([2]; versus DOX-HCl formulation): ~10 fold

Compound: C[C@@H](O)[C@@H]1NC(=O)[C@H](CCCCN)NC(=O)[C@@H](Cc2c[nH]c3ccccc23)NC(=O)[C@H](Cc2ccccc2)NC(=O)[C@@H](NC(=O)[C@H](N)Cc2ccccc2)CSSC[C@@H](C(=O)N[C@H](CO)[C@@H](C)O)NC1=O [OCT-Ac, octreotide acetate]
octreotide degraded ([6]; after 5 days): More than half | octreotide degraded or reacted ([6]; after two hours): about 4% | octreotide released ([7]; after two weeks): more than 90% | octreotide released ([7]; within 24 hours): More than 60% | appearance on mixing with SAIB solution in NMP ([8]; Example 1, about 6% octreotide acetate, SAIB solution in NMP (80%)): opaque suspension with chunky aggregates | phase separation on standing ([8]; Example 1, room temperature overnight): two distinguished phases | phase separation on standing ([8]; Example 1, room temperature, within a few hours): appearance of phase separation was observed | appearance when combined with SAIB/NMP solution ([8]; Example 7, SAIB about 70%): phase separation occurred immediately | appearance when combined with SAIB/NMP solution ([8]; Example 8, SAIB about 80%): phase separation occurred even faster

Compound: lysozyme [LYZ]
phase behaviour of pellets [1]: phase separated after one day

The next lines start with the values.

leuprolide released [4]: almost all
Compound: leuprolide oleate [LA-OL]

pramipexole released ([5]; after one week): about 90% | pramipexole released ([5]; within 24 hours): More than 60%
Compound: CCCN[C@H]1CCc2nc(N)sc2C1.Cl [PPL-HCl]

appearance when combined with SAIB/NMP solution ([8]; Example 7, SAIB about 70%): homogeneous suspension | phase separation after 24 hours ([8]; Example 8, SAIB about 80%, room temperature, 24 h): no significant phase separation | appearance when combined with SAIB/NMP solution ([8]; Example 8, SAIB about 80%): homogeneous milky suspension
Compound: octreotide dodecyl sulfate [OCT-SDS]

leuprolide released [4]: almost all
Compound: CCNC(=O)[C@@H]1CCCN1C(=O)[C@H](CCCNC(=N)N)NC(=O)[C@H](CC(C)C)NC(=O)[C@@H](CC(C)C)NC(=O)[C@H](Cc1ccc(O)cc1)NC(=O)[C@H](CO)NC(=O)[C@H](Cc1c[nH]c2ccccc12)NC(=O)[C@H](Cc1c[nH]cn1)NC(=O)[C@@H]1CCC(=O)N1 [LA-Ac, leuprolide acetate]

appearance when combined with SAIB/NMP solution ([8]; Example 7, SAIB about 70%): transparent uniform solution
Compound: octreotide docusate [OCT-DSS]
